The record followed here is patent publication US12440537B1, “Compositions and methods for treating skin diseases, disorders, or conditions” (Washington University, priority 2020, dated 2025).

Ends that are not written are not given here.

Assay [1] concerns the target T1, vitamin D receptor (Mus musculus, UniProt P48281).
T1 sequence (P48281 1-422): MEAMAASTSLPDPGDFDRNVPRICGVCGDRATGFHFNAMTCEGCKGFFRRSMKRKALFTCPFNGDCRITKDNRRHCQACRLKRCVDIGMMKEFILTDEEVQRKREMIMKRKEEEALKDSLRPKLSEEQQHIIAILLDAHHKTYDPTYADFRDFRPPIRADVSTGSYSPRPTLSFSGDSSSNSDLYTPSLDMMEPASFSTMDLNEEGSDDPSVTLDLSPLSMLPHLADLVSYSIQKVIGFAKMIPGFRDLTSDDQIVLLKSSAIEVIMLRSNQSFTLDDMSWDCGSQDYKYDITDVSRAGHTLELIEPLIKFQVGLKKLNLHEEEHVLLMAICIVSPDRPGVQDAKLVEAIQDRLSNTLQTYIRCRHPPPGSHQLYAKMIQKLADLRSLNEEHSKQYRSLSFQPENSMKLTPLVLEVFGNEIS
Description: Nuclear localization of vitamin D receptor in MC903-treated keratinocytes. The assay is classed as cell-based. On the set-up: endogenous in cells; host or cells: Ivl-/- keratinocytes. As to conditions: MC903 treated lvl-/- keratinocytes.

The target of assay [2] is T1, vitamin D receptor. Description: MC903 vitamin D receptor-mediated skin inflammation in WT and Involucrin (lvl) -/- mice. Type of assay: in vivo. Further details: from tissue; host or cells: skin of WT and Ivl-/- mice (in vivo). The protocol:
Here, vitamin D receptor-mediated skin inflammation was induced in Involucrin (lvl) -/- mice and vitamin D receptor function in the epidermis was evaluated (see e.g., FIG. 14). It was shown that vitamin D receptor-induced inflammation is reduced in lvl^-/- skin (see e.g., FIG. 15). […] Basophils are a major source of IL-4 and IL-6 expression that drives skin inflammation (see e.g., FIG. 21).

For assay [3], the system named is keratinocytes. Description: Keratinocyte barrier function after IVL peptide treatment. The assay is classed as cell-based. As to conditions: keratinocytes treated with IVL peptide.
The test system of assay [4] is keratinocytes. The experiment in a line: IVL peptide protection against keratinocyte cell (detergent) lysis. The note with it: keratinocytes treated with IVL late repeat peptide. Type of assay: cell-based.

For the compound `C=C1/C(=C\C=C2/CCC[C@]3(C)[C@@H]([C@H](C)/C=C/[C@@H](O)C4CC4)CC[C@@H]23)C[C@@H](O)C[C@@H]1O` [MC903], the “nuclear localization of vitamin D receptor” value on vitamin D receptor [1] is given as “loss of nuclear localization of vitamin D receptor”. Besides, on vitamin D receptor [2] (MC903-treated lvl-/- skin), the “CD4+ T cells” value was “significantly decreased”; the “cell type populations (scRNA-seq)” value was “Decreased basophils, macrophages, CD4^+ T cells, and basal II keratinocytes, and increased suprabasal keratinocytes”. The “vitamin D receptor induced inflammation” value on vitamin D receptor [2] (MC903 treatment, lvl-/- skin compared to WT) is recorded as “significantly reduced as early as day 6”.
As for “ELPEQQEGQL (ELPEQQEGQL-NH2) [IVL peptide]”, in the assay with keratinocytes [3], the keratinocyte barrier function result was “improves keratinocyte barrier function”. Besides, the “protection against keratinocyte cell lysis” value in the assay on keratinocytes [4] was “protects against keratinocyte cell lysis”; in the assay on keratinocytes [4] (listed as IVL late repeat peptide) it was “protects the keratinocyte from detergent lysis”; in the assay with keratinocytes [4] (listed as “late” repeat IVL peptide), “resistant to detergent lysis”.
